The source of these data is publication PMC7248105, “Photoinduced monooxygenation involving NAD(P)H-FAD sequential single-electron transfer” (Nature Communications, 2020).

Data set [1] concerns the target T1, PqsL (Pseudomonas aeruginosa, UniProt Q9HWJ1).
T1 construct: final models contain residues 3–370
The data set can be described thus: X-ray crystal structure with FAD and 2-ABA; KD by fluorescence spectroscopy. Format: binding.

The next data set has as its target T2, PqsL-Q (Pseudomonas aeruginosa, UniProt Q9HWJ1, C105G/G45R/I43R/R41Y).
T2 construct: final models contain residues 3–370
T2 sequence (Q9HWJ1 1-398 R41Y/I43R/G45R/C105G): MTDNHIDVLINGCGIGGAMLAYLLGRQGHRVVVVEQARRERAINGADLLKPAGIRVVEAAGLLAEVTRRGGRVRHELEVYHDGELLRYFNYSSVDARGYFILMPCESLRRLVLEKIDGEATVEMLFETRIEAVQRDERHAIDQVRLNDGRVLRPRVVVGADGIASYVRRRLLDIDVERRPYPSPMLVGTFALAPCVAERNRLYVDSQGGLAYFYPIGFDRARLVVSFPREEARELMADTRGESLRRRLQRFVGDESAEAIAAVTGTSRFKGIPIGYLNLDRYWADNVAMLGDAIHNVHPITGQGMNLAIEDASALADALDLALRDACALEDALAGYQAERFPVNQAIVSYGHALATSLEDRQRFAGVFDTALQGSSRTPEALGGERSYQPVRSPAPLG
The data set can be described thus: FAD fluorescence polarization; X-ray crystal structure. Format: binding. (Polarisation of emitted light reports the rotation of a fluorescent probe.)

Data set [2] concerns the target T1, PqsL. The description is as above. It counts as binding.
Data set [3] deals with T3, PqsL (Pseudomonas aeruginosa, UniProt Q9HWJ1, P273A).
T3 sequence (Q9HWJ1 1-398 P273A): T2 sequence (Q9HWJ1 1-398 R41Y/I43R/G45R/C105G)
The data set can be described thus: FAD binding affinity (fluorescence spectroscopy).

The test system of data set [4] is NC(=O)C1=CN([C@@H]2O[C@H](COP(=O)(O)OP(=O)(O)OC[C@H]3O[C@@H](n4cnc5c(N)ncnc54)[C@H](OP(=O)(O)O)[C@@H]3O)[C@@H](O)[C@H]2O)C=CC1. The data set can be described thus: purified protein. Particulars: FAD.
Data set [5] relates to NC(=O)C1=CN([C@@H]2O[C@H](COP(=O)(O)OP(=O)(O)OC[C@H]3O[C@@H](n4cnc5c(N)ncnc54)[C@H](O)[C@@H]3O)[C@@H](O)[C@H]2O)C=CC1. The data set can be described thus: purified protein. The following applies: FAD.
Data set [6] concerns the molecule itself. The data set can be described thus: SEC; analytical gel filtration, Superdex 200 Increase 10/300 GL, 20 mM tris-HCl pH 8.5 without NaCl, 12 °C, calibrated with Bio-Rad standard. (In gel filtration, larger molecules generally elute earlier.)

For orientation: Kd means the concentration at which binding is half-saturated. Lower therefore signals a tighter complex. The term Km denotes the concentration of substrate that gives half-maximal velocity. For orientation: stoichiometry N means a count of units in the complex or per binding partner.

Molecule `Nc1ccccc1C(=O)CC(=O)O` [2-ABA, 2-aminobenzoylacetate] returned an equilibrium dissociation constant (Kd) on PqsL [1] of 38.4 ± 3.98 µM.

`Cc1cc2nc3c(=O)[nH]c(=O)nc-3n(C[C@H](O)[C@H](O)[C@H](O)COP(=O)(O)OP(=O)(O)OC[C@H]3O[C@@H](n4cnc5c(N)ncnc54)[C@H](O)[C@@H]3O)c2cc1C` [FAD]: the Kd at PqsL-Q was 0.0375 ± 0.0067 µM; at PqsL [2] it was 0.25 ± 0.0298 µM; at PqsL [3], 64 µM. Turning to PqsL (Pseudomonas aeruginosa PAO1), the Michaelis constant (Km) in data set [4] is reported as 157.5 ± 18.9 µM; in data set [5], 310.9 ± 21.6 µM.

B1: PqsL (flavoprotein monooxygenase, wild type) (enzyme, Pseudomonas aeruginosa)
chain: T2 sequence (Q9HWJ1 1-398 R41Y/I43R/G45R/C105G)
notes: PqsL, FAD-dependent monooxygenase of alkyl quinolone N-oxide biosynthesis, Pseudomonas aeruginosa; the crystal models hold residues 3-370; One protomer is written; also called Wild-type PqsL; FPMO PqsL; source: E. coli LMG194 (pHERD30T), purified (Ni-NTA, Resource Q anion exchange)
Regarding B1, the “stoichiometry N” value in data set [6] was 2.
